PubChem BioAssay AID2060604 (Molecular Pharmacology Branch, DTP, NCI, 2025)
“And” between values parts separate entries of the source, which are not always exact repeats. Equal entries are not always repeated.

System: 379773-124-R-J2-PDC complex spheroids, viability % test/control
Experiment: Anticancer human tumor 379773-124-R-J2-PDC patient-derived endometrial carcinoma cell line growth inhibition [CLK]
Conditions: for viability, T/C: stronger effect = lower value; active = viability on the fitted dose curve at most 10% of control; inactive = the rest
Outline: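 Multi-cell-type spheroids combined patient-derived tumor cells with HUVEC endothelial cells and human mesenchymal stem cells. Paired agents were dosed in half-log steps down from about clinical Cmax, or from 10 microM where Cmax was unknown.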
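Note: compound exposure lasted seven days before the viability readout.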
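Throughout, for viability, T/C: 100% = DMSO vehicle control wells.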

CC(CO)NC(=O)c1cc(-c2ccc(Cl)cc2)nn(-c2cnn(C)c2)c1=O (centres undefined) + CNC(=O)c1ccc(Nc2nc(OC3CCCC3)c3c(-c4ccc5nc(C)oc5c4)c[nH]c3n2)c(OC)c1
> 10000 nM: IC50 (curve of first compound, second compound 0.0316 µM)
< 31.6 nM: IC50 (curve of first compound, second compound 0.1 µM) | IC50 (curve of first compound, second compound 0.316 µM) | IC50 (curve of first compound, second compound 1 µM) | IC50 (curve of first compound, second compound 3.16 µM) | IC50 (curve of first compound, second compound 10 µM)
inactive: viability, T/C (second compound 0.0316 µM, first compound 0.0316 µM) 72% | viability, T/C (second compound 0.0316 µM, first compound 0.1 µM) 80.9% | viability, T/C (second compound 0.0316 µM, first compound 0.316 µM) 70.2% | viability, T/C (second compound 0.0316 µM, first compound 1 µM) 74.2% | viability, T/C (second compound 0.0316 µM, first compound 3.16 µM) 72.4% | viability, T/C (second compound 0.0316 µM, first compound 10 µM) 52.2% | viability, T/C (second compound 0.1 µM, first compound 0.0316 µM) 48.2% | viability, T/C (second compound 0.1 µM, first compound 0.1 µM) 48.5% | viability, T/C (second compound 0.1 µM, first compound 0.316 µM) 44.4% | viability, T/C (second compound 0.1 µM, first compound 1 µM) 38.9% | viability, T/C (second compound 0.1 µM, first compound 3.16 µM) 36.8% | viability, T/C (second compound 0.1 µM, first compound 10 µM) 33.3% | viability, T/C (second compound 0.316 µM, first compound 0.0316 µM) 42.1% | viability, T/C (second compound 0.316 µM, first compound 0.1 µM) 42.2% | viability, T/C (second compound 0.316 µM, first compound 0.316 µM) 37.7% | viability, T/C (second compound 0.316 µM, first compound 1 µM) 35.4% | viability, T/C (second compound 0.316 µM, first compound 3.16 µM) 43.8% | viability, T/C (second compound 0.316 µM, first compound 10 µM) 29.9% | viability, T/C (second compound 1 µM, first compound 0.0316 µM) 32.2% | viability, T/C (second compound 1 µM, first compound 0.1 µM) 37.4% | viability, T/C (second compound 1 µM, first compound 0.316 µM) 34.8% | viability, T/C (second compound 1 µM, first compound 1 µM) 34.6% | viability, T/C (second compound 1 µM, first compound 3.16 µM) 35.6% | viability, T/C (second compound 1 µM, first compound 10 µM) 25.2% | viability, T/C (second compound 3.16 µM, first compound 0.0316 µM) 32.6% | viability, T/C (second compound 3.16 µM, first compound 0.1 µM) 30% | viability, T/C (second compound 3.16 µM, first compound 0.316 µM) 32.5% | viability, T/C (second compound 3.16 µM, first compound 1 µM) 30.9% | viability, T/C (second compound 3.16 µM, first compound 3.16 µM) 34.5% | viability, T/C (second compound 3.16 µM, first compound 10 µM) 24.4% | viability, T/C (second compound 10 µM, first compound 0.0316 µM) 32% | viability, T/C (second compound 10 µM, first compound 0.1 µM) 30.5% | viability, T/C (second compound 10 µM, first compound 0.316 µM) 28.5% | viability, T/C (second compound 10 µM, first compound 1 µM) 35.8% | viability, T/C (second compound 10 µM, first compound 3.16 µM) 32.4% | viability, T/C (second compound 10 µM, first compound 10 µM) 22.7%

C#Cc1c(F)ccc2cc(O)cc(-c3ncc4c(N5CC6CCC(C5)N6)nc(OCC56CCCN5CC(F)C6)nc4c3F)c12 (centres undefined)
> 10000 nM: IC50 (curve of compound)
inactive: viability, T/C (compound 0.0316 µM) 90.6% and 93% | viability, T/C (compound 0.1 µM) 79.4% and 89.5% | viability, T/C (compound 0.316 µM) 88.3% and 86.8% | viability, T/C (compound 1 µM) 92% and 85.9% | viability, T/C (compound 3.16 µM) 87% and 103% | viability, T/C (compound 10 µM) 80% and 87.1%
